This is an account of results in patent US9980972B2, “Rho kinase inhibitors for use in treating familial amyotrophic lateral sclerosis” (GEORG-AUGUST-UNIVERSITÄT GÖTTINGEN STIFTUNG ÖFFENTLICHEN …, priority 2012, dated 2018).

Assay [1] concerns regenerating axons after optic nerve crush lesion. The following applies: high intravitreal dose 40 μmol/l in comparison to medium dose 400 nmol/l; cited from earlier work.
For assay [2], the system named is SOD1 G93A mouse model of ALS. Nature of the assay: Survival (age at death) in SOD1 G93A mouse model of ALS. It is filed as in vivo. The following applies: presymptomatic from d50, 10 mg/kg body weight, male and female. An excerpt:
High-copy B6SJL-Tg(SOD1*G93A)1Gur/J were obtained from Jackson Labs (Stock Number 002726; Bar Harbor, USA) that had originally been produced by Gurney et al. (Gurney, Pu et al. 1994). The colony was maintained by crossing C57BL/6 males harboring the transgene with wild-type SJL females. To verify presence of the transgene in the F1 progeny, tail biopsies were collected from 14-day-old pups and genotyped using PCR. At the age of 35-45 days mice were moved to the testing facility to acclimate to the new environment with a 12-h light/dark cycle before being assigned to a study.
At 50 days (presymptomatic, d50) or 80 days of age (symptomatic, d80) mice were separated into Fasudil-30 (Fas30)- and Fasudil-100 (Fas100)-Treatment or Vehicle Control (Veh) groups. Prior to any treatment, groups were constituted so as to minimize between-group variability by using the following criteria. Groups were balanced with respect to gender and body weight within gender. In addition, groups were age-matched and littermate-matched. […] The study was observer-blinded.
To reach sufficient CSF levels of Fasudil the inventors administered Fasudil (LC Labs, Woburn, USA; product number F-4660) at a low concentration of […] (Fas30) or at a high concentration of 50 mg (Fas100) in 100 ml drinking water. Control groups received the respective amount of isotonic drinking water termed as vehicle (Veh).
Chronic oral treatment with a low dose of Fasudil (F30) or a high dose of Fasudil (F100) was started either presymptomatically at day 50 or symptomatically at day 80 and continued until death.
Survival. Date and cause of death were recorded for each mouse. For humane reasons, animals are closely monitored and sacrificed as moribund prior to actual death using criteria for severe moribundity. To determine duration of survival reliably and humanely, the moribund state, defined as the inability of mice to right themselves 30 seconds after being placed on a side (a neurological score of 4) was used. The moribund mice were scored as “dead”, and were euthanized using carbon dioxide.
The data were then analyzed using Kaplan-Meier survival fit analysis with the Log-Rank and Wilcoxon tests for statistical significance. Cox proportional hazards analysis was also performed to determine hazard ratios and test for statistical significance of their differences using the Effect Likelihood Chi Square test. Statistical analyses were performed using Statistica 9.1 (StatSoft, Hamburg, Germany). P-values less than 0.05 were taken to be statistically significant.
The criteria to terminate the therapy study (later referred to as time of death) were fulfilled if the animals had reached the terminal neurological scoring or had lost a defined percentage of the maximal body weight. This time point then reflects the survival time of the animals whereas disease duration was measured from onset of disease until time of death.

On to `Cc1cncc2cccc(S(=O)(=O)N3CCCNC[C@@H]3C)c12` [dimethyl-fasudil, (S)-(+)-2-Methyl-1-[(4-methyl-5-isoquinolinyl)sulfonyl]-hexahydro-1H-1,4-diazepine], for which the “number of regenerating axons after optic nerve crush lesion” value in assay [1] is “significantly reduced”. For the compound `C[C@@H](N)[C@H]1CC[C@H](C(=O)Nc2ccncc2)CC1` [Y-27632], the survival entry in assay [2] is “no significant effects”.
